These results are taken from US20040142317A1, “Use of amino acid transporter atbo,+ as a delivery system for drugs and prodrugs” (priority 2003, published 2004).

The target of one assay is T1, LAT2/4F2hc (Homo sapiens, UniProt Q9UHI5).
T1 construct: expressed in transfected cells; host or cells: HRPE cells
T1 sequence (Q9UHI5 1-535): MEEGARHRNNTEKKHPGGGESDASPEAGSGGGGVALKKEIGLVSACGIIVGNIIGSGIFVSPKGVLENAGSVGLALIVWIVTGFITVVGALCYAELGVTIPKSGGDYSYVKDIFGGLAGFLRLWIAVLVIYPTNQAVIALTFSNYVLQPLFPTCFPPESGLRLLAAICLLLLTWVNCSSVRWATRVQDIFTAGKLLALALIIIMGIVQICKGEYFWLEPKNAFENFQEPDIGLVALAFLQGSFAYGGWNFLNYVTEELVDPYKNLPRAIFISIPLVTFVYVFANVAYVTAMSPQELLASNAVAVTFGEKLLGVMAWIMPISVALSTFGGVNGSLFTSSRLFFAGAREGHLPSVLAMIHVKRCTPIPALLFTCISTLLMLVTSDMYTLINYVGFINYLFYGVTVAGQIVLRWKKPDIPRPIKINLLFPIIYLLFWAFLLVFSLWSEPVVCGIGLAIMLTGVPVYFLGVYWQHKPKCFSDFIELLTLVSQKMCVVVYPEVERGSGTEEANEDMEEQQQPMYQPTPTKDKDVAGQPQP
T1 sequence (P08195 1-529 partner): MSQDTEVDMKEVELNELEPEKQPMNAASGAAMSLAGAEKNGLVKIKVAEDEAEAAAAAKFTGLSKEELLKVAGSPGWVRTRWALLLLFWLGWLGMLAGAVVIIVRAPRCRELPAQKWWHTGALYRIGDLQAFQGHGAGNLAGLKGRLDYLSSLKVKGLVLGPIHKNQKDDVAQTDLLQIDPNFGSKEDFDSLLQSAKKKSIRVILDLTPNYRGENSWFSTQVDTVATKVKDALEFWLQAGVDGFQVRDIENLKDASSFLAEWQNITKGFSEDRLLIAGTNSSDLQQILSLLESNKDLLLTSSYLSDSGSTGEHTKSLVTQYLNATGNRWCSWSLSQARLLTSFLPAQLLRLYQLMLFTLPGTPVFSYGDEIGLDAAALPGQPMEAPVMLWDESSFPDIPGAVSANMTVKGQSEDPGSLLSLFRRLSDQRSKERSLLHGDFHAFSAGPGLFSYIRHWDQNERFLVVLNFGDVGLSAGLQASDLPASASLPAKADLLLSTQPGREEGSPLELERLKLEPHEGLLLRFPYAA
The assay is described as follows: D-[3H]-serine transport in HRPE cells transfected with transporter cDNA. It counts as cell-based. The following applies: D-[3H]-serine 5 μM. The method, then: (§1) Transport of D-[^3H]-serine (5 μM) was measured in HRPE cells transfected with cDNA of each transporter.
(§2) The present inventors evaluated the function of 10 different amino acid transporter clones with respect to transport of D-serine in heterologous expression systems (FIG. 11). All of these transporters are expressed in the intestinal tract. The list of the transporters tested include three energy-independent, heterodimeric facilitative transporters (L1, L2, and b^0,+), three subtypes of the Na^+-coupled system A (ATA1, ATA2, and ATA3), two subtypes of the Na^+- and H^+-coupled system N (SN1 and SN2), the Na^+-coupled system ATB^0, and the Na^+- and Cl^−-coupled system ATB^0,+. […] The ability to transport D-serine was the highest for the Na^+- and Cl^−-coupled transporter ATB^0,+. ATB^0,+ belongs to the gene family of neurotransmitter transporters whose transport function is energized by multiple driving forces, namely a Na^+ gradient, a Cl^− gradient, and membrane potential. […] Based on the energetics of these two transport systems, ATB^0,+ is expected to play the leading role in this process.

Another assay concerns the target T2, system L1 (LAT1/4F2hc) (Homo sapiens, UniProt Q01650).
T2 construct: expressed in transfected cells; host or cells: HRPE cells
The description is as above. It counts as cell-based. The following applies: D-[3H]-serine 5 μM. The method, then:
as §1, §2

T2 sequence (Q01650 whole entry, species assumed, one chain of several): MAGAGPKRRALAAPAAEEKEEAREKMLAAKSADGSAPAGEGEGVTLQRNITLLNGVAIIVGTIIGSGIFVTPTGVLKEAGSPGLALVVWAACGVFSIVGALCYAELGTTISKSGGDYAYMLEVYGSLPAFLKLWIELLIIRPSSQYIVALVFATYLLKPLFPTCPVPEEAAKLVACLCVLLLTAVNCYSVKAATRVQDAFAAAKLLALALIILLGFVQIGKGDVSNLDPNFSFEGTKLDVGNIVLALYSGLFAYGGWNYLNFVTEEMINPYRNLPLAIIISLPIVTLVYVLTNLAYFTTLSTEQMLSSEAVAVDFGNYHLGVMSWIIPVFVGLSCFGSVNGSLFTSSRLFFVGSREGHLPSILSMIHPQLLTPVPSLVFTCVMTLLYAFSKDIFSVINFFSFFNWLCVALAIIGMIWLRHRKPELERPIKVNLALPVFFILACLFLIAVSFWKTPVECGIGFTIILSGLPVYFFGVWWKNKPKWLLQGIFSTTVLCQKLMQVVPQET

Turning to `N[C@H](CO)C(=O)O` [D-Serine, D-serine], the D-serine transport result at LAT2/4F2hc is recorded as “did not exhibit detectable D-serine transport activity”; on system L1 (LAT1/4F2hc) it was “significant ability to transport”.
